Values quoted from earlier work in patent US20230104358A1 (priority 2021, published 2023).

Experiments:
[1] = target: dopamine Type 2 (D2) receptor (Homo sapiens, UniProt P14416)
dopamine D1 = dopamine D1 (Homo sapiens, UniProt P21728)
serotonin 5HT1D receptor = serotonin 5HT1D receptor (Homo sapiens, UniProt P28221)
serotonin 5HT1A receptor = target: T1, serotonin 5HT1A receptor (Homo sapiens, UniProt P08908)
T1 sequence (P08908 1-422): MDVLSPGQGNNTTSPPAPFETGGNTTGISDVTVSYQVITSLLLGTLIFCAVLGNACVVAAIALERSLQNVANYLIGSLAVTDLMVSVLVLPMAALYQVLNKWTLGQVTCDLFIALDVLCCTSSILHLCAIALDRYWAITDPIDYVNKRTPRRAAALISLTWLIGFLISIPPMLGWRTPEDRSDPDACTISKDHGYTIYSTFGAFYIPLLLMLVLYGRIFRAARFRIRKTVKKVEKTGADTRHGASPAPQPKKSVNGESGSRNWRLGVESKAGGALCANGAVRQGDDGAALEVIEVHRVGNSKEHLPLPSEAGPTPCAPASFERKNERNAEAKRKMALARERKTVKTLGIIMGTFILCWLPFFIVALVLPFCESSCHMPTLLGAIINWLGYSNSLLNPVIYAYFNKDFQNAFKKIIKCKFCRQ

[2] = tested on: haloperidol-sensitive sigma site
serotonin 5HT1C receptor = target: T2, serotonin 5HT1C receptor (Homo sapiens, UniProt P28335)
T2 sequence (P28335 33-458): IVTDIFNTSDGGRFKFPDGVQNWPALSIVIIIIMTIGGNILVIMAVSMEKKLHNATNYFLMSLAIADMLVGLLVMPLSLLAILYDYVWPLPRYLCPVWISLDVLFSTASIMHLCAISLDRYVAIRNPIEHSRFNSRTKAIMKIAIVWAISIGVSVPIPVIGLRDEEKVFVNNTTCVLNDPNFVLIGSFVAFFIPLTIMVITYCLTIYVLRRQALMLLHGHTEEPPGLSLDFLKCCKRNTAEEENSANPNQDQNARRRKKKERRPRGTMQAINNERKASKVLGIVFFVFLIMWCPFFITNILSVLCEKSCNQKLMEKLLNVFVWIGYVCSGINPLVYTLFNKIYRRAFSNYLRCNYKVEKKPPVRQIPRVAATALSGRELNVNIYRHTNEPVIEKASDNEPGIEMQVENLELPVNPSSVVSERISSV

β1 adrenergic receptor = β1 adrenergic receptor (Homo sapiens, UniProt P08588)
β1 adrenergic receptor, sequence (P08588 whole entry): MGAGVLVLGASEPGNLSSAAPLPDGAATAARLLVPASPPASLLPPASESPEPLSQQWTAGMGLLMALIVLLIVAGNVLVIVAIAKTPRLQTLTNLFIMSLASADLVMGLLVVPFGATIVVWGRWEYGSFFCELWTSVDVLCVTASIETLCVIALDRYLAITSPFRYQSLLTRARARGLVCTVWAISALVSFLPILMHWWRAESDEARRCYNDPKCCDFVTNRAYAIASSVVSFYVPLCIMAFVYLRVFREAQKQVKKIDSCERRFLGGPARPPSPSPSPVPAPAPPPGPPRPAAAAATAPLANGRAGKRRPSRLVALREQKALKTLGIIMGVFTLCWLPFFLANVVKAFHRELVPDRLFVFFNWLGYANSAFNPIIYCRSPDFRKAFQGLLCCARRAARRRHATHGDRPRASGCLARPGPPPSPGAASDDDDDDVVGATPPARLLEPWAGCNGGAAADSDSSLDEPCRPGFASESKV

β2 adrenergic receptor = β2 adrenergic receptor (Homo sapiens, UniProt P07550)
β2 adrenergic receptor, sequence (P07550 whole entry): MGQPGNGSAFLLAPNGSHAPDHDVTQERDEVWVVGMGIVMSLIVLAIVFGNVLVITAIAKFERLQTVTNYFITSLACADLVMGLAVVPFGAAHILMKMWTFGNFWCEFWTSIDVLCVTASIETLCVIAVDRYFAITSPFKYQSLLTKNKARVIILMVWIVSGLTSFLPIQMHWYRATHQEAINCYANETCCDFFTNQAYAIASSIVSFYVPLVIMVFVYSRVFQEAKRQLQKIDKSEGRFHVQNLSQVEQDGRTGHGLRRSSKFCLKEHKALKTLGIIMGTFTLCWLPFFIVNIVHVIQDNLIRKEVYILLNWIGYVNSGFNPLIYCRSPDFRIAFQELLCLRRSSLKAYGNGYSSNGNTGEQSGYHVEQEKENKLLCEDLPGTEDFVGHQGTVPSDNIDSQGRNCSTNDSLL

dopamine Type 2 (D2) receptor, sequence (P14416 whole entry): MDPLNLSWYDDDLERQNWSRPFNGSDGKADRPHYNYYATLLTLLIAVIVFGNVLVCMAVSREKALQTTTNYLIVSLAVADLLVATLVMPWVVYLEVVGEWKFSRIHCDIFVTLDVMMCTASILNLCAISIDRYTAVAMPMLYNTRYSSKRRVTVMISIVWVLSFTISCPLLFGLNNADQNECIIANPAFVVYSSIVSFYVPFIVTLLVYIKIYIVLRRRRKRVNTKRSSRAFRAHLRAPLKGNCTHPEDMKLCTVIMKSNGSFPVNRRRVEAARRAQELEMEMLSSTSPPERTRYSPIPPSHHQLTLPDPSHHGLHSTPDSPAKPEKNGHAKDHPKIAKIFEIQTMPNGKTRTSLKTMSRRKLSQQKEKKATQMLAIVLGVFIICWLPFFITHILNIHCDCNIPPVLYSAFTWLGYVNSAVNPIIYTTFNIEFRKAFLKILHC
dopamine D1, sequence (P21728 whole entry): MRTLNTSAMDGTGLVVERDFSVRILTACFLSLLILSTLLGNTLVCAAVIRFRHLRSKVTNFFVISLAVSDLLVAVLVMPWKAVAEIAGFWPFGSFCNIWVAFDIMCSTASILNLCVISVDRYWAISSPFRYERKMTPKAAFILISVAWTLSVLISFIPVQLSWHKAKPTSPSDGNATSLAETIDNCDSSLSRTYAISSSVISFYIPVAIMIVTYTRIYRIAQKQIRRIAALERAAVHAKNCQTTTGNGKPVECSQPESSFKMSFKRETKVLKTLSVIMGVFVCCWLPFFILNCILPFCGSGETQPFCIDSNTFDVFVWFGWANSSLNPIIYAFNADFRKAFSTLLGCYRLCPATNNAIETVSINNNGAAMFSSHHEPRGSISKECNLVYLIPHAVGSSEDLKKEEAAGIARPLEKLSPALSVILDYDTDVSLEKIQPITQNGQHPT
serotonin 5HT1D receptor, sequence (P28221 whole entry): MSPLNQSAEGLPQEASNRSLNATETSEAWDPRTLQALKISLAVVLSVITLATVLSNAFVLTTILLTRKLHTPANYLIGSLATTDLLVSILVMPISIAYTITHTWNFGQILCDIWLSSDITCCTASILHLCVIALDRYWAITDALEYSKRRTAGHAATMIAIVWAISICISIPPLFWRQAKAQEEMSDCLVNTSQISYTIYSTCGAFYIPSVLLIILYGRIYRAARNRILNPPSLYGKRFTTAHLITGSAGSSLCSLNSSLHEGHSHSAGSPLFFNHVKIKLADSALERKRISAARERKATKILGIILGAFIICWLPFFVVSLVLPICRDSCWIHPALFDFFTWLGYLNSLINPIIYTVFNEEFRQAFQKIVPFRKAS

## Cc1nc2n(c(=O)c1CCN1CCC(c3noc4cc(F)ccc34)CC1)CCCC2 [Risperidone]
[1]
  affinity for dopamine Type 2 (D2) receptor: high affinity
Dopamine D1
  affinity for dopamine D1: weak affinity
Serotonin 5HT1D receptor
  affinity for serotonin 5HT1D receptor: low to moderate affinity
Serotonin 5HT1A receptor
  affinity for serotonin 5HT1A receptor: low to moderate affinity
[2]
  affinity for haloperidol-sensitive sigma site: weak affinity
Serotonin 5HT1C receptor
  affinity for serotonin 5HT1C receptor: low to moderate affinity
α1 adrenergic receptor
  affinity for α1 adrenergic receptor: high affinity
α2 adrenergic receptor
  affinity for α2 adrenergic receptor: high affinity
β1 adrenergic receptor
  affinity for β1 adrenergic receptor: no affinity
β2 adrenergic receptor
  affinity for β2 adrenergic receptor: no affinity
